Data: patent US10787650B2, “Artificial bioluminescent enzymes” (NATIONAL INSTITUTE OF ADVANCED INDUSTRIAL SCIENCE AND …, priority 2015, dated 2020)
“Also recorded” adds a separate entry of the source.

Columns and labels:
Fridericia luciferase = settings: cited from earlier work
ALuc16 [1] = experiment: Metal cation-driven variance of bioluminescence spectra of ALuc16; type: biochemical; settings: 100 μg/mL cation
Description: The corresponding bioluminescence spectra (FIG. 6(B)) were also measured using the same method as that of FIG. 6(A). In a 200 μL PCR tube, 50 μL of the mixture of ALuc16 and a metal cation (Ca(II), Fe(III), Ni(II), Zn(II), Mg(II), or Cr(VI); concentration: 100 μg/mL) in the metal-cation-free Tris-HCl buffer (Solution A) was further mixed with 10 μL of an nCTZ solution (Solution B). The tube was immediately moved into the chamber of a precision spectrophotometer (AB-1850, ATTO) (FIG. 6(B)), and the consequent spectra were taken in an integration of 30 seconds.

molecular strain sensor = experiment: Metal ion effects on luminescence of the purified molecular strain sensor; type: biochemical; settings: within 1 minute after substrate addition
Description: For this experiment, the concentration of the purified molecular strain sensor was adjusted to 0.1 mg/mL by dilution in a Tris-HCl buffer (pH 8.2). Rapamycin was added to the molecular strain sensor and the final concentration was adjusted to […]. After that, the resultant was diluted with metal ion-containing Tris-HCl buffer (pH 8.2) to make a 0.01 mg/mL molecular strain sensor solution. At this time, the final concentration of the metal ion added was 10 μg/mL. The solution was transferred to a 96-well microplate, and, while the substrate solution was added from a microinjector, luminescence intensities were measured with or without a metal ion.
The luminescence stability of the luminescent probe dependent on different metal ion concentrations was studied by a similar technique (FIG. 23). The substrate solution was added from a microinjector in the same manner as above, and then changes in luminescence intensity over 1 minute were measured.

ALuc16 [2] = experiment: Cation-driven long-term stability of optical intensities of ALuc16; type: biochemical
Description: The long-term stability of optical intensities was estimated by the same method as that of FIG. 6(A) (FIG. 8(A)). The microplate was placed in the chamber of LAS-4000, and the optical intensities were monitored every 5 minutes, after substrate injection, for a duration of 60 minutes.

ALuc16 [3] = experiment: Metal cation-driven optical intensities of ALuc16 (purified enzyme); type: biochemical
Description: The metal cation-driven optical properties were estimated with ALuc16 (FIG. 6). A metal cation-free sample of ALuc16 was prepared beforehand as follows: we first generated a DNA construct of ALuc16 carrying a Strep-II tag at the C-terminus via PCR. The construct was then cloned into a pOPTHM vector (providing a cleavable N-terminal His6-MBP tag), and expressed in the bacterial strain Shuffle T7 Express (New England Biolabs) with 0.3 mM IPTG induction. […] The lysate was centrifuged at 18,000 rpm for 40 minutes, and then the supernatant was passed over a 5 mL HisTrap HP column (GE Healthcare). […] The eluted sample was dialyzed to a metal-cation-free Tris-HCl buffer (0.05 M, pH 8.2) at 4° C. for 24 hours, and finally adjusted to a concentration of 1 mg/ml by dilution. […] Meanwhile, the corresponding substrate solution carrying nCTZ (Promega) was diluted 100-fold with the cation-free Tris-HCl buffer (Solution B). 50 μL of Solution B was simultaneously injected into Solution A in the 96-well plate with a multichannel micropipette (Gilson). The microplate was immediately moved to an image analyzer (LAS-4000, FujiFilm) equipped with a cooled charge-coupled device (CCD) camera, and the optical intensities were simultaneously estimated in a precision mode. The measurements were conducted in triplicate (n=3). The optical images were analyzed with Multi Gauge V3.2 (FujiFilm). […] The experiment was conducted by the same method as that of FIG. 6. In the inset, the optical image taken with LAS-4000 (FujiFilm) is shown.

ALuc16 [4] = experiment: Circular dichroism (CD) measurement of metal cation-mixed ALuc16
Description: Circular dichroism (CD) measurement was further conducted for reasoning the cation-driven degradation of ALuc16 activities (FIG. 9). Samples were prepared by mixing varying concentrations of Pb(II) or Al(III) with column-purified and dialyzed ALuc16, and were measured with a CD spectrometer (JASCO, Japan) after preparation.

[5] = Luminescence activity of novel artificial bioluminescent enzymes (COS-7 cell lysate); type: biochemical, African green monkey; settings: COS-7 lysate, native coelenterazine
Description: African green monkey kidney-derived COS-7 cells were cultured using a 96-well microplate. The COS-7 cells were grown until occupying 90% of the bottom-surface area of the culture plate, and, as shown in FIG. 19 and FIG. 20, were each transiently transfected with a pcDNA 3.1(+) vector (Invitrogen) encoding each luminescent enzyme with a lipofection reagent (TransIT-LT1, Mirus). After that, the cells were further cultured for about 1 day. After the culture, cell lysates were prepared using a cell lysis agent (Lysis buffer, Promega), and 5 μL each of the cell lysates was taken from each well and transferred to a 96-well microplate for measurement. An assay buffer (50 μL) containing native coelenterazine was simultaneously added to each well using a multichannel pipette. Immediately after the addition of the assay buffer, the microplate was moved into the black box of an image analyzer (LAS-4000, FujiFilm), and luminescence images were measured with a CCD camera (FIG. 19 and FIG. 20).

[6] = Enzymatic activity confirmation: temporal stability in luminescence; type: biochemical, African monkey; settings: compared to existing ALuc or conventional copepod luciferases
Description: The enzymatic activity of ALuc may be examined according to the following method. First, using a known lipid reagent for gene introduction, an expression vector encoding ALuc is introduced into African monkey-derived COS-7 cells. As a control, an expression vector having a known GLuc without any mutation is also introduced into the cells in the same manner. At a predetermined time (from 10 hours to 20 hours, for example, 16 hours) after the introduction of the vector, a cell lysate is prepared using a known cell lysis reagent.
After that, the cell lysate is mixed with a known substrate solution containing coelenterazine, and its color intensity, temporal stability in luminescence, and the like are measured.
The luminescence intensity may be found by measuring the intensity at a specific wavelength using a conventional luminescence spectrophotometer after addition of a known substrate. By performing the measurement every minute, the temporal stability in luminescence can be evaluated based on the temporal change in luminescence. In order to measure a shift to a longer wavelength, scanning of the entire wavelength is required.

[Ca+2].[Cl-].[Cl-] [Ca(II)]
effect on activities of Fridericia luciferase (Fridericia luciferase): elevate | blue shift of the bioluminescence spectrum (ALuc16 [1]): 2 nm | effect of increasing concentration on overall luminescence intensity (molecular strain sensor): reduces an overall luminescence intensity | effect of increasing concentration on S/N ratio (molecular strain sensor; with/without rapamycin): improves an S/N ratio | effect on long-term stability of bioluminescence intensities (ALuc16 [2]; 60 minutes after substrate injection): prolonged the bioluminescence intensities in a concentration-dependent manner | optical intensity retained (ALuc16 [2]; after 60 minutes): 4% | initial optical intensity sustained (ALuc16 [2]; for 13 minutes after nCTZ injection): 60%

[Cl][Ni][Cl] [Ni(II)]
red shift of the bioluminescence spectrum (ALuc16 [1]): 4 nm

[Cl][Pb][Cl] [Pb(II)]
concentration by which the optical intensity was quickly decreased (ALuc16 [3]; Tris-HCl, pH 8.2): 1 µg/mL | detection limit (ALuc16 [3]; dose-response of ALuc16 activities): around 0.4 μg/mL | effect on optical intensities (activities) of ALuc16 (ALuc16 [3]; metal cation-free Tris-HCl buffer (pH 8.2, 0.05 M), nCTZ): suppress; also recorded: quickly inhibited | levels that showed basal noise CD spectra (ALuc16 [4]): higher than 1 μg/mL | effect on structure of ALuc16 (CD spectra, 222 nm) (ALuc16 [4]; varying cation concentrations): destroy the tertiary structure of ALuc16; also recorded: the structure of ALuc16 is denatured

B1: ALuc45: artificial luciferase, SEQ ID NO: 5 (protein)
chain: MMGIKVLFALVCLALVQAKPTEDEDEDDIVDVVGNFWAIGVDNDRDFTISADRGKLPGKKLPKEVLIEIEANAKKAGCTRGCLICLSKIKCTAKMKKWLPGRCHSYEGDKDTGQGGIGEPIVDAPEIPGFKDLTPMEQFIAQVDLCADCTTGCLKGLANVKCSALLKKWLPDRCASFADKIQKEVDNIKGLAGS
luminescence intensities as compared to conventional ALucs (e.g., ALuc16 and ALuc30) [5]: even stronger luminescence intensities | luminescence stability [6]: remarkably stable luminescence signal
